Test results taken from ChEMBL document CHEMBL5465560, “Selectivity Literature for EUbOPEN Chemogenomic Library” (2024).
Blank lines part the entries; values can stand above or below the compound they belong to.

Legend:
[1] = target: Protein arginine N-methyltransferase 3 (Homo sapiens, UniProt O60678); assay: Selectivity interaction (Methyltransferase screen (radiometric assays, panel of 8 PRMTs, 21 protein lysine methyltransferases, 3 DNA methyltransferases, and one RNA methyltransferase)) EUB0000271b PRMT3
Protein arginine N-methyltransferase 3, sequence (O60678 2-531 limits assumed): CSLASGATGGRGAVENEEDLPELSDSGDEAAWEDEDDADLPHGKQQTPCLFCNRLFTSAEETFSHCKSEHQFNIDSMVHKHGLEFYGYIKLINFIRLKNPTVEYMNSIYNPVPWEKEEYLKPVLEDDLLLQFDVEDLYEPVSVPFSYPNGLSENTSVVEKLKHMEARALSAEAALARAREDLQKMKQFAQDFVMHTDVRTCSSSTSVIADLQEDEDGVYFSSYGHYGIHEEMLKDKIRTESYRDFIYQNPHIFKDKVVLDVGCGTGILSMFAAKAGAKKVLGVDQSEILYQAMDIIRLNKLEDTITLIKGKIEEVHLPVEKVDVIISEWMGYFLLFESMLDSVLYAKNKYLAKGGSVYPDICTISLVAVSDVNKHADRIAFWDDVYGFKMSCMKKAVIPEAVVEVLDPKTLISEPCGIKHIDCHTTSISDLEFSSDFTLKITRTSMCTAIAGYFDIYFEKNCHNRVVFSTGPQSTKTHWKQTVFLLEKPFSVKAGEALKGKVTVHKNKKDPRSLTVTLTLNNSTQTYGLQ

[2] = target: T1, Serine/threonine-protein kinase D1 (Homo sapiens) (UniProt Q15139); assay: Selectivity interaction (Millipore kinase profiler) EUB0000124b PRKD1; settings: at 10 µM
T1 sequence (whole entry): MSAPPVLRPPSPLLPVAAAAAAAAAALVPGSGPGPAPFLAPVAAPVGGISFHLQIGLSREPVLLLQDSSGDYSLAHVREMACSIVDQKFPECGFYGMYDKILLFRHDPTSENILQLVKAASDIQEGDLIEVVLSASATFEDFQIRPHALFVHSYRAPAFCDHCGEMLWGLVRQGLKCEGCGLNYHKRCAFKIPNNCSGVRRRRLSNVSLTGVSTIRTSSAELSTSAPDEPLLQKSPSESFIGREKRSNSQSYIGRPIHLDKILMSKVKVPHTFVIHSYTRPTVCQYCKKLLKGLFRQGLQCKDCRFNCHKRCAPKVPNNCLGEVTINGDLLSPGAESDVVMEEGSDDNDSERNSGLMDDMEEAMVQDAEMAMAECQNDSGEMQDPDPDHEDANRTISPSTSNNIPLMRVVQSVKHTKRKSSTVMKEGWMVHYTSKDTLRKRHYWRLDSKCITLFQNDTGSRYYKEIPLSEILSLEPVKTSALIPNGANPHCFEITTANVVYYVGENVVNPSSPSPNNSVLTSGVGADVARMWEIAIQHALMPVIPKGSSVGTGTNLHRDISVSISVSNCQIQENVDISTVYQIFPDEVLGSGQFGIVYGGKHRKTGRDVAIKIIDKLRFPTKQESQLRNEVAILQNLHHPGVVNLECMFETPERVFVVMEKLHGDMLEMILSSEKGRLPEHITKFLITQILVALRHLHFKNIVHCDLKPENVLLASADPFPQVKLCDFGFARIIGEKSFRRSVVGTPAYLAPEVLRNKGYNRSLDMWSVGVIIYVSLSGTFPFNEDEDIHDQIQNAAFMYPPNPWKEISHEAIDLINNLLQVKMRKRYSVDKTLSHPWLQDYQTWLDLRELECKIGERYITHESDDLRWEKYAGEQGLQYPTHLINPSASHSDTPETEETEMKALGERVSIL

[3] = target: Ribosomal protein S6 kinase beta-1 (Homo sapiens, UniProt P23443); assay: Selectivity interaction (ActivX KiNativ screen (ex vivo kinase selectivity in human PBMCs)) EUB0001619a RPS6KB1; type: cell-based; settings: PBMC, at 1 µM
Ribosomal protein S6 kinase beta-1, sequence (P23443 whole entry, looked up): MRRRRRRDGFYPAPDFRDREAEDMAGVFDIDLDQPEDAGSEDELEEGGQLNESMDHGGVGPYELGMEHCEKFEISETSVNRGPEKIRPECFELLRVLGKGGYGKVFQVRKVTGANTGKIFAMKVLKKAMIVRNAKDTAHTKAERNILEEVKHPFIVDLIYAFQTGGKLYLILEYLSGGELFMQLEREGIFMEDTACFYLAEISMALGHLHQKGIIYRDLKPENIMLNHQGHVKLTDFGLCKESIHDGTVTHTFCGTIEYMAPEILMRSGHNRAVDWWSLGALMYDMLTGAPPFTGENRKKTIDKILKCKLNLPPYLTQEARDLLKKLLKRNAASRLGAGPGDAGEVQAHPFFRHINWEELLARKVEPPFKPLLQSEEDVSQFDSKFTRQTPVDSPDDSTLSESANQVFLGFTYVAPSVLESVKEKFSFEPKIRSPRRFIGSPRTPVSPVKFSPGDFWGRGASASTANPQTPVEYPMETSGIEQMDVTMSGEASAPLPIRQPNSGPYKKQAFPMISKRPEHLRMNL

[4] = target: Cyclin-dependent kinase 3 (Homo sapiens) (UniProt Q00526); assay: Selectivity interaction (KinomeScan (DiscoverX)) EUB0000595a CDK3; settings: at 10 µM
Cyclin-dependent kinase 3 (Homo sapiens), sequence (Q00526 whole entry, looked up): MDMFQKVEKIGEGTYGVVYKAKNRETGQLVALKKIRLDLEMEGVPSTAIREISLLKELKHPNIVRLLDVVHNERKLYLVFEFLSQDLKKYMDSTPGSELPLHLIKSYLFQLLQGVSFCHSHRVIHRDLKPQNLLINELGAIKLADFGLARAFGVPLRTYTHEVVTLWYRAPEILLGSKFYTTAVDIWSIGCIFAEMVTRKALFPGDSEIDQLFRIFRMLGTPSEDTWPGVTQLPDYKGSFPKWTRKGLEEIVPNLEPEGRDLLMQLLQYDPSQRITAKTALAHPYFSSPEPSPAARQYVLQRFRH

[5] = target: Proto-oncogene tyrosine-protein kinase receptor Ret (Homo sapiens, UniProt P07949); assay: Selectivity interaction (Upstate Kinase Profiler service (Millipore)) EUB0000056c RET; settings: at 1 µM
Proto-oncogene tyrosine-protein kinase receptor Ret, sequence (P07949 whole entry): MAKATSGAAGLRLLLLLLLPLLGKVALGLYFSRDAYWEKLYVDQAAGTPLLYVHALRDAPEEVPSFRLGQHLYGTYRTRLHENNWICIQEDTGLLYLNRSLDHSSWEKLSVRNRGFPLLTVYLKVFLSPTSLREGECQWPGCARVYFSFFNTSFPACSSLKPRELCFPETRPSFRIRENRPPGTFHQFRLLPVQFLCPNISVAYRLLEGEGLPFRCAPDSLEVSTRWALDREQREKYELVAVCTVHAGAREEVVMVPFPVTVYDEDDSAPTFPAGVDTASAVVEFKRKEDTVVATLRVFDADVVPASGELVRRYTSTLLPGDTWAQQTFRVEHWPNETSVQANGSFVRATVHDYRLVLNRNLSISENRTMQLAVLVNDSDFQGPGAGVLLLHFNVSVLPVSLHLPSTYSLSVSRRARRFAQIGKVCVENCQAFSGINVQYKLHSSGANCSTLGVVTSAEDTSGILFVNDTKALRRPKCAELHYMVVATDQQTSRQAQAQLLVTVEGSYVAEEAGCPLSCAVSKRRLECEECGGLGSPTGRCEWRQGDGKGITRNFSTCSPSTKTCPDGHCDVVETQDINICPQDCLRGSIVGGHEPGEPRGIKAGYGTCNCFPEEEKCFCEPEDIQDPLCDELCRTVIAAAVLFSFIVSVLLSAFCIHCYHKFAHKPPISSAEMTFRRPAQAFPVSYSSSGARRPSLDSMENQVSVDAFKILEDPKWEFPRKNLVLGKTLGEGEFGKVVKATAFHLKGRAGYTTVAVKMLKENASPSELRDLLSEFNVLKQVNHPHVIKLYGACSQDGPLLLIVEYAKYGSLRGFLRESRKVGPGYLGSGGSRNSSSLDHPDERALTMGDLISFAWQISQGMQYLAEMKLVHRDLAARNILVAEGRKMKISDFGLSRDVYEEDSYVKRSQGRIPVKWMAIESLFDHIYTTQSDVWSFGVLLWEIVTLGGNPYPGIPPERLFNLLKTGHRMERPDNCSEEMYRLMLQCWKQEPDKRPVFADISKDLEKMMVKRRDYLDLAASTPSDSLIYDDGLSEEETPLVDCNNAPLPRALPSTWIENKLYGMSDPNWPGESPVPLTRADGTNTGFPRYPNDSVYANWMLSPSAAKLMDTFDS

[6] = target: T2, Serine/threonine-protein kinase STK11 (Homo sapiens) (UniProt Q15831); assay: Selectivity interaction (ActivX KiNativ screen (kinase selectivity in THP-1 cell lysates)) EUB0000639a STK11; type: subcellular; settings: lysate
T2 sequence (whole entry): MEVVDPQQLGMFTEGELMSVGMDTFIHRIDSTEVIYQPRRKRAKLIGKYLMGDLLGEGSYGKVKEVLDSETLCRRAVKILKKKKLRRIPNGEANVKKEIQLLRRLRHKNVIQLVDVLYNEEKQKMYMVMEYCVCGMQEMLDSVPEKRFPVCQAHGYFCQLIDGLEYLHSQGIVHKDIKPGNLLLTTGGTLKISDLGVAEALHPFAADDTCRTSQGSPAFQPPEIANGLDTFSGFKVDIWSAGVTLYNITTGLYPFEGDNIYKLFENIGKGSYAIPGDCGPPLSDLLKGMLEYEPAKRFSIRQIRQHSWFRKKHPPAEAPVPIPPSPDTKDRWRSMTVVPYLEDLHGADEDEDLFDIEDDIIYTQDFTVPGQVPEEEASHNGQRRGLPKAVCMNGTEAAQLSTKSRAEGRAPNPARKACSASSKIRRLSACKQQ

[7] = target: Cyclin-dependent kinase 14 (Homo sapiens) (UniProt O94921); assay: Selectivity interaction (ActivX KiNativ screen (kinase selectivity in THP-1 cell lysates)) EUB0000639a CDK14; type: subcellular; settings: lysate, at 1 µM
Cyclin-dependent kinase 14 (Homo sapiens), sequence (O94921 whole entry): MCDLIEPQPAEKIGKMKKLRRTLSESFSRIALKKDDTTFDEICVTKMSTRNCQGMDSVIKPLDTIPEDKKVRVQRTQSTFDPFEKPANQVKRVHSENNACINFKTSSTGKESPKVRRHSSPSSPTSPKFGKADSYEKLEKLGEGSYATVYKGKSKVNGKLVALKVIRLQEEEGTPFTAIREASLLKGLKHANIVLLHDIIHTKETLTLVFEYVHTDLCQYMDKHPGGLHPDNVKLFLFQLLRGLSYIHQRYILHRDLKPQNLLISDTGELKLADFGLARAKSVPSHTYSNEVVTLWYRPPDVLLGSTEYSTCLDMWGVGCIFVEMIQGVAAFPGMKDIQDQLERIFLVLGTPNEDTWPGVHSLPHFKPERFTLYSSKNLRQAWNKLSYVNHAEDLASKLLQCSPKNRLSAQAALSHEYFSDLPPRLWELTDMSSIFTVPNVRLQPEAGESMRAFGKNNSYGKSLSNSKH

[8] = target: T3, Dual specificity mitogen-activated protein kinase kinase 6 (Homo sapiens) (UniProt P52564); assay: Selectivity interaction (KinomeScan (DiscoverX)) EUB0000229b MAP2K6; settings: at 10 µM
T3 sequence (whole entry): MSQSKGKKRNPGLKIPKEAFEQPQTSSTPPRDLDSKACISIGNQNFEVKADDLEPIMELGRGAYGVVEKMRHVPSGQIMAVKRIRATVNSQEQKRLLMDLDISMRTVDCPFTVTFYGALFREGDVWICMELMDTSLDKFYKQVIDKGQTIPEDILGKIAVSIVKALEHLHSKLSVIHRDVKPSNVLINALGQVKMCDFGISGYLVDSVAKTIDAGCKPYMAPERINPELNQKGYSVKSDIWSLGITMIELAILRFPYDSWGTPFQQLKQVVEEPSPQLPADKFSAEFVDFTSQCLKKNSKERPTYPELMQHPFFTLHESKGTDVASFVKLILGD

SMILES: Cc1cc(C)cc([C@@H]2c3cc(C)ccc3NC(=O)CN2C(=O)c2ccc(Br)s2)c1
% of activity ([1]; at 1 µM): 100% | % of activity ([1]; at 10 µM): 98%

% of control [2]: 111%
SMILES: CC(=O)Nc1cccc(-n2c(=O)n(C3CC3)c(=O)c3c(Nc4ccc(I)cc4F)n(C)c(=O)c(C)c32)c1

SMILES: N#Cc1cccc(-c2c[nH]c3ncnc(N4CCOCC4)c23)c1
% of inhibition [3]: 11%

SMILES: COCC(=O)NC/C=C/c1ccc2ncnc(Nc3ccc(Oc4ccc(C)nc4)c(C)c3)c2c1 [CP-724714]
% of control [4]: 100%

% of inhibition [5]: 46%
SMILES: Cc1ccc(-c2ccc3c(ccc4sc5c(c43)NC[C@@H](C)NC5=O)n2)cn1

% of inhibition ([6]; at 0.01 µM): -0.5% | % of inhibition ([6]; at 0.04 µM): 12.2% | % of inhibition ([6]; at 0.2 µM): 34.8% | % of inhibition ([6]; at 1 µM): 58.5% | % of inhibition ([6]; at 5 µM): 85.1% | % of inhibition [7]: 1.6%
SMILES: CC[C@@H]1[C@H](F)C(=O)N[C@@H]1COc1nccc2cc(C(N)=O)c(OC)cc12 [ZIMLOVISERTIB]

SMILES: COc1cc(N(C)c2ccnc3ccc(C(F)(F)F)cc23)cc(OC)c1OC
% binding [8]: 75%
